Measurements as given in patent publication US8283370B2, “Imidazolidinedione derivatives as antimalarial agents, preparation thereof, and methods of use” (The United States of America as Represented by the …, priority 2008, dated 2012).
Several values for one entry are separate records, joined by “and”; a condition that tells them apart may be missing. Equal values may be shown once.

What was measured:
Type in all cases: in vivo
P. yoelii sporozoites = assay: Causal prophylactic activity, exoerythrocytic (EE) mouse model, P. yoelii sporozoites; conditions: for P. yoelli # Mice Protected/# Mice Used: 3 days treated; for Causal prophylactic protection in mice (comparison in words): Table 5, compared to control compound 3 or between P. yoelii and P. berghei
Procedure: (§1) New compounds were assessed for their causal prophylactic activity in two different exoerythrocytic (EE) mouse models using sporozoites of either P. berghei or P. yoelii. The procedures have been previously described (see, for example, Q. Zhang et al., J. Med. Chem. 48 (20): 6472-6481 (2005)). Briefly, each compound was ground with a mortar and pestle and suspended in hydroxyethylcellulose and Tween 80 for compounds to be administered PO and those given SC were suspended in peanut oil. Each compound was prepared at different dose levels. Compounds were administered either PO or SC to mice once a day for three consecutive days, to mice on the day before, 4 hours before, and the day after being inoculated intraperitoneally with P. yoelii sporozoites or P. berghei sporozoites intravenously. Whole body weights were taken on Day 0 and Day 6 then approximately twice a week for 31 days. A blood film was taken on Day 5 and then approximately twice a week for 31 days. Mice losing greater than about 20% of their body weight were sacrificed. A compound was considered active if only low levels of parasites were found (less than about 10%) in blood films taken on Day 5 or any biweekly for 31 days. Mice alive on Day 31 with no parasites found in any blood films were considered protected.

P. berghei sporozoites = assay: Causal prophylactic activity, exoerythrocytic (EE) mouse model, P. berghei sporozoites; conditions: 3 days treated
Procedure: as §1

[1] = test system: P. cynomolgi liver stage hypnozoites; assay: Radical cure test in relapsed Rhesus monkeys
Procedure: Monkeys were treated with chloroquine (10 mg/kg/day) by oral for 7 consecutive days and the test compounds by IM for 3 consecutive days after the parasitemia level reached 5,000 parasites/mm^3. Chloroquine (CQ) at 10 mg/kg/day×7 days eliminates the blood stage parasites, but not the liver stage hypnozoites. Compounds with antihypnozoite activity will delay the relapse or radically cure the infection. To evaluate the radical curative properties, daily blood samples were followed for 21 days, 3 times per week for 4 weeks, and then 2 times weekly until 100 days after the last day of test compound administration. Parasite clearance should occur in all animals treated with chloroquine. Relapse is expected in the control group. Relapse in the treated group indicates failure of the test compounds. […] Relapses of the control monkeys were treated with chloroquine once daily for 7-days and observed for a second relapse. Relapse in experimental animals and the second relapse of the control monkeys were treated with the standard 7-day oral CQ (chloroquine) and primaquine (1.78 mg base/kg). After standard treatment, blood smears were monitored daily for 4 consecutive days of negative results and 2 times weekly for 2 weeks.

P. cynomolgi sporozoites = assay: Causal prophylactic test in P. cynomolgi sporozoites challenged Rhesus monkeys; conditions: for Causal prophylactic activity in Rhesus test (in words): 30 mg/kg/day for 3 days by IM; for Patency (Days Post-innoculation): one value per monkey, 30 mg/kg 1 daily for 3 days, IM (days -1, 0, +1), 30 mg/kg
Procedure: Among the new compounds prepared, representative compounds 5e, 6c, 7a and 7c were assessed for causal prophylactic and radical cure activities in Rhesus monkeys. To protect the Rhesus monkeys, a test compound must pass a mouse toxicity test at 300 mg/kg/day for 3 consecutive days by SC administration, and mice must not lose more than 5% body weight within 30 days after receiving the test compound.
The causal prophylactic and radical curative antimalarial activity of the new derivatives 5e, 6c, 7a and 7c were assessed in a P. cynomolgi sporozoites challenged Rhesus monkey model. Detailed procedure of sporozoites harvest and drug tests have been described previously (J. Guan et al., Bioorg. Med. Chem. 23, 699-704 (2005); Q. Zhang et al., J. Med. Chem. 48 (20): 6472-6481 (2005)) Briefly, monkeys were randomized to control groups and experimental groups. A donor monkey was inoculated intravenously with 1.3 mL freshly-thawed frozen infected red blood cells (DA310). When the donor monkey developed gametocytemia, mosquito feedings were conducted on days 13 and 14 after inoculation. The donor monkey was treated with intramuscular chloroquine hydrochloride (CQ) 10 mg/kg, once a day after the second mosquito feeding and continued for 7 days. On day 0 (beginning of assay), each of the monkeys was inoculated intravenously with 1-ml inoculum of suspension containing about 1.0×10^6 (one million) P. cynomolgi sporozoites harvested from Anopheles dirus mosquitoes' salivary glands previously fed on the donor monkey (See, for example, Corcoran, K D, et al. (1993) Am. J. Trop. Med. Hyg. 49:473 477, and Shanks, G D, et al. (2001) Clinical Infectious Diseases 33:1968 1974). All monkeys received treatment on days −1, 0 and 1. The control monkeys received dimethylsulfoxide (DMSO) and the experimental animals received testing compound intramusculary. After the assay, all monkeys were given standard malarial treatment. Specifically, seven-day primaquine (1.78 mg/kg) and chloroquine (10 mg/kg) were administered to treat all monkeys.

[2] = one value per monkey, 30 mg/kg 1 daily for 3 days IM with CQ 10 mg/kg x7 po

| Compound | P. yoelli # Mice Protected/# Mice Used (P. yoelii sporozoites; Dose/day 10 mg/kg) | P. yoelli # Mice Protected/# Mice Used (P. yoelii sporozoites; Dose/day 40 mg/kg) | P. yoelli # Mice Protected/# Mice Used (P. yoelii sporozoites; Dose/day 160 mg/kg) | P. berghei # Mice Protected/# Mice Used (P. berghei sporozoites; Dose/day 40 mg/kg) | P. berghei # Mice Protected/# Mice Used (P. berghei sporozoites; Dose/day 160 mg/kg) | Causal prophylactic activity in Rhesus test (in words) (P. cynomolgi sporozoites) | Patency (Days Post-innoculation) (P. cynomolgi sporozoites) | Delayed relapse, Days Post-treatment [1, 2] | further results |
| --- | --- | --- | --- | --- | --- | --- | --- | --- | --- |
| CC(C)N1C(=O)C(=O)N=C1/N=C(\NC(=O)OC(C)(C)C)Nc1ccc(Cl)c(Cl)c1 [Compound 3, reference compound] | 3/5 | 2/5 | 4/5 | 2/10 | 4/10 | – | – | – | – |
| CCN(CC)CCCC(C)Nc1ccnc2cc(Cl)ccc12 (centres unmarked) [CQ, chloroquine, reference compound] | – | – | – | – | – | – | – | – | Relapse, Days Post-treatment ([1]; one value per monkey, CQ 10 mg/kg x7 po alone (Drug 2 none)): 9 days |
| CC(C)NC(=NC1=NC(=O)C(=O)N1C(C)C)Nc1ccc(Cl)c(Cl)c1 [Compound 6c] | – | – | – | 0/5 | 1/5 | most potent causal prophylactic activity | 62 days and 94 days | 66 days and 91 days | Radical curative efficacy (in words) ([1]; test compound IM for 3 days with CQ po for 7 days): more active than 5e, 7a and 7c |
| CC(C)N1C(=O)C(=O)N=C1N=C(NCC(C)(C)C)Nc1ccc(Cl)c(Cl)c1 [Compound 6e] | 5/5 | 5/5 | 5/5 | 0/5 | 1/5 | – | – | – | Causal prophylactic protection in mice (comparison in words) (P. yoelii sporozoites): enhanced protection |
| CC(C)N1C(=O)C(=O)N=C1N=C(NOCc1ccccc1)Nc1ccc(Cl)c(Cl)c1 [Compound 5e] | – | – | – | 0/5 | 0/5 | about equal in causal prophylactic activity to 7c | 27 days and 29 days | 35 days and 33 days | – |
| CC(C)N1C(=O)C(=O)N=C1N=C(Nc1ccccc1)Nc1ccc(Cl)c(Cl)c1 [Compound 6f] | 5/5 | 5/5 | 5/5 | 0/5 | 0/5 | – | – | – | Causal prophylactic protection in mice (comparison in words) (P. yoelii sporozoites): enhanced protection |
| CC(C)N1C(=O)C(=O)N=C1N=C(NC(=O)C(C)(C)C)Nc1ccc(Cl)c(Cl)c1 [Compound 7c] | – | – | – | – | – | superior protective activity than that of 7a | 21 days and 40 days | – | Delayed relapse, days longer as compared with control animals ([1]; 40 mg/kg 1 daily for 3 days IM with CQ 10 mg/kg x7 po): 20 days and 23 days; Delayed relapse, Days Post-treatment ([1]; one value per monkey, 40 mg/kg 1 daily for 3 days IM with CQ 10 mg/kg x7 po): 29 days and 32 days |
| CCC(CC)C(=O)NC(=NC1=NC(=O)C(=O)N1C(C)C)Nc1ccc(Cl)c(Cl)c1 [Compound 7a] | – | – | – | – | – | weak causal prophylactic activity | 13 days and 17 days | 16 days | Delayed relapse, days longer as compared with control animals ([1]; 30 mg/kg 1 daily for 3 days IM with CQ 10 mg/kg x7 po): 7 days; Results (radical cure, in words) ([1]; 30 mg/kg 1 daily for 3 days IM with CQ 10 mg/kg x7 po, no relapse after 100 days = radically cured): One out of two monkeys treated with 7a was cured and Cure |
